Assay results reported in PubChem BioAssay AID248 (DTP/NCI, 2004).
Several values for one entry are separate records, joined by “and”; a condition that tells them apart may be missing. Equal values may be shown once. Inconclusive results and toxic doses are left out. Rule as the data show it: active = T/C of 150% or more; inactive = T/C below 125%.

Tested on: L1210 leukemia ip in BDF1 mice, survival T/C
Test: NCI In Vivo Anticancer Drug Screen. Data for tumor model L1210 Leukemia (intraperitoneal) in B6D2F1 (BDF1) mice
Conditions: endpoint: mean survival time, higher = longer survival
Outline: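 Antitumor effect is assessed in tumor-bearing animals. Survival in the compound arm is compared with a vehicle-dosed control arm and expressed as their quotient.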

[1] = dose: 100.0 mg/kg/injection, schedule: Q01DX009 (ip), vehicle: Klucel (hydroxypropylcellulose) (HPC)
[2] = dose: 100.0 mg/kg/injection, schedule: Q04DX002 (ip), vehicle: Klucel (hydroxypropylcellulose) (HPC)
[3] = dose: 200.0 mg/kg/injection, schedule: Q01DX009 (ip), vehicle: Klucel (hydroxypropylcellulose) (HPC)
[4] = dose: 200.0 mg/kg/injection, schedule: Q04DX002 (ip), vehicle: Klucel (hydroxypropylcellulose) (HPC)
[5] = dose: 400.0 mg/kg/injection, schedule: Q01DX009 (ip), vehicle: Klucel (hydroxypropylcellulose) (HPC)
[6] = dose: 400.0 mg/kg/injection, schedule: Q04DX002 (ip), vehicle: Klucel (hydroxypropylcellulose) (HPC)
[7] = dose: 50.0 mg/kg/injection, schedule: Q01DX009 (ip), vehicle: saline
[8] = dose: 100.0 mg/kg/injection, schedule: Q01DX009 (ip), vehicle: saline
[9] = dose: 50.0 mg/kg/injection, schedule: Q04DX003 (ip), vehicle: saline
[10] = dose: 100.0 mg/kg/injection, schedule: Q04DX003 (ip), vehicle: saline
[11] = dose: 200.0 mg/kg/injection, schedule: Q04DX003 (ip), vehicle: saline
[12] = dose: 100.0 mg/kg/injection, schedule: Q04DX003 (ip), vehicle: Klucel (hydroxypropylcellulose) (HPC)
[13] = dose: 200.0 mg/kg/injection, schedule: Q04DX003 (ip), vehicle: Klucel (hydroxypropylcellulose) (HPC)
[14] = dose: 400.0 mg/kg/injection, schedule: Q04DX003 (ip), vehicle: Klucel (hydroxypropylcellulose) (HPC)
[15] = dose: 12.5 mg/kg/injection, schedule: Q01DX009 (ip), vehicle: saline
[16] = dose: 12.5 mg/kg/injection, schedule: Q04DX003 (ip), vehicle: saline
[17] = dose: 25.0 mg/kg/injection, schedule: Q04DX003 (ip), vehicle: saline
[18] = dose: 100.0 mg/kg/injection, schedule: Q01DX001 (ip), vehicle: carboxymethylcellulose (CMC)
[19] = dose: 200.0 mg/kg/injection, schedule: Q01DX001 (ip), vehicle: carboxymethylcellulose (CMC)
[20] = dose: 400.0 mg/kg/injection, schedule: Q01DX001 (ip), vehicle: carboxymethylcellulose (CMC)
[21] = dose: 100.0 mg/kg/injection, schedule: Q01DX001 (ip), vehicle: saline
[22] = dose: 200.0 mg/kg/injection, schedule: Q01DX001 (ip), vehicle: saline
[23] = dose: 400.0 mg/kg/injection, schedule: Q01DX001 (ip), vehicle: saline
[24] = dose: 100.0 mg/kg/injection, schedule: Q04DX003 (ip), vehicle: saline with Tween-80
[25] = dose: 200.0 mg/kg/injection, schedule: Q04DX003 (ip), vehicle: saline with Tween-80

Measured: T/C

C=CCOC(=O)C1(O)c2ccccc2NC(=S)N1CC=C (stereo unspecified)
inactive: [1] 104 % of control | [2] 97 % of control | [3] 93 % of control | [4] 97 % of control | [5] 93 % of control | [6] 100 % of control

CN(C)CC(=O)c1ccc(Cl)cc1
inactive: [7] 87 % of control | [8] 102 % of control

O=CC(=O)c1ccc(O)cc1
inactive: dose: 50.0 mg/kg/injection, schedule: Q01DX009 (ip), vehicle: saline sonified 114 % of control | [9] 111 % of control | dose: 66.0 mg/kg/injection, schedule: Q04DX003 (ip), vehicle: saline 97 % of control | dose: 100.0 mg/kg/injection, schedule: Q01DX009 (ip), vehicle: saline sonified 119 % of control | [10] 103 % of control and 111 % of control | dose: 150.0 mg/kg/injection, schedule: Q04DX003 (ip), vehicle: saline 103 % of control | [11] 117 % of control

CCOC(=O)C1CN(S(=O)(=O)c2ccc(C)cc2)c2ccccc2C(=O)C1/C(=C/C(=O)OC)C(=O)OC (stereo unspecified)
inactive: [12] 96 % of control | [13] 94 % of control | [14] 86 % of control

CCCCNc1cc2c3c(c1)CCCN3CCC2
inactive: [15] 107 % of control | [16] 95 % of control | dose: 25.0 mg/kg/injection, schedule: Q01DX009 (ip), vehicle: saline 103 % of control | [17] 98 % of control | [9] 95 % of control

CC1CC(=O)c2c(O)ccc(O)c21 (stereo unspecified)
inactive: [18] 96 % of control | [19] 89 % of control | [20] 100 % of control

Nc1ncc2[nH]c(I)nc2n1
inactive: dose: 5.0 mg/kg/injection, schedule: Q01DX001 (ip), vehicle: saline 98 % of control

O=C(N/C(=C/c1ccc([N+](=O)[O-])cc1)C(=O)c1ccccc1)c1ccc([N+](=O)[O-])cc1
inactive: dose: 50.0 mg/kg/injection, schedule: Q01DX001 (ip), vehicle: saline 101 % of control | [21] 103 % of control | [22] 97 % of control | [23] 90 % of control

O=C(OCC(OC(=O)c1ccccc1)C(OC(=O)c1ccccc1)C(OC(=O)c1ccccc1)C(OC(=O)c1ccccc1)c1cnn(-c2ccccc2)n1)c1ccccc1 (stereo unspecified)
inactive: dose: 100.0 mg/kg/injection, schedule: Q04DX003 (ip), vehicle: acetone 87 % of control | dose: 200.0 mg/kg/injection, schedule: Q04DX003 (ip), vehicle: acetone 100 % of control | dose: 400.0 mg/kg/injection, schedule: Q04DX003 (ip), vehicle: acetone 90 % of control

CCCCCCCCCC(=O)Nc1cccc(C)c1C
inactive: [2] 105 % of control | [4] 94 % of control | [6] 94 % of control

CC1=Nc2ccccc2N=C(C)C1
inactive: [21] 107 % of control | [24] 93 % of control | [22] 102 % of control | [25] 96 % of control

CCNC1(c2ccc(Cl)cc2)CCCCC1=O (stereo unspecified)
inactive: [7] 105 % of control | [8] 102 % of control | [10] 104 % of control | [11] 106 % of control

CC1(C)N=C(N)N=C(N)N1c1ccc(CCCC(=O)Nc2ccc(S(=O)(=O)F)cc2)cc1
inactive: dose: 0.8 mg/kg/injection, schedule: Q01DX009 (ip), vehicle: saline 97 % of control | dose: 4.0 mg/kg/injection, schedule: Q01DX009 (ip), vehicle: saline 98 % of control | dose: 20.0 mg/kg/injection, schedule: Q01DX009 (ip), vehicle: saline 104 % of control | [8] 114 % of control | dose: 500.0 mg/kg/injection, schedule: Q01DX009 (ip), vehicle: saline 123 % of control

O=c1oc2ccccc2c2c1C(c1ccccc1)C=C(c1ccccc1)O2 (stereo unspecified)
inactive: [24] 89 % of control | [25] 91 % of control | dose: 400.0 mg/kg/injection, schedule: Q04DX003 (ip), vehicle: saline with Tween-80 92 % of control

Clc1cc(Cl)c(OCC#CI)c(Cl)c1Cl
inactive: dose: 6.25 mg/kg/injection, schedule: Q01DX009 (ip), vehicle: Klucel (hydroxypropylcellulose) (HPC) 100 % of control | dose: 12.5 mg/kg/injection, schedule: Q01DX009 (ip), vehicle: Klucel (hydroxypropylcellulose) (HPC) 97 % of control | dose: 25.0 mg/kg/injection, schedule: Q01DX009 (ip), vehicle: Klucel (hydroxypropylcellulose) (HPC) 92 % of control | dose: 50.0 mg/kg/injection, schedule: Q01DX009 (ip), vehicle: Klucel (hydroxypropylcellulose) (HPC) 96 % of control | dose: 75.0 mg/kg/injection, schedule: Q01DX009 (ip), vehicle: Klucel (hydroxypropylcellulose) (HPC) 98 % of control | dose: 115.0 mg/kg/injection, schedule: Q01DX009 (ip), vehicle: Klucel (hydroxypropylcellulose) (HPC) 94 % of control | dose: 170.0 mg/kg/injection, schedule: Q01DX009 (ip), vehicle: Klucel (hydroxypropylcellulose) (HPC) 93 % of control

CC12C=CC3(CCC4C(C)(C)C(O)C(=O)CC4(C)C3CC1=O)C2 (stereo unspecified)
inactive: [1] 105 % of control | [12] 101 % of control | [3] 97 % of control | [13] 101 % of control | [5] 107 % of control | [14] 98 % of control

Nc1nnc(SCc2ccccc2)s1
inactive: [1] 92 % of control | [3] 105 % of control | [5] 97 % of control

c1ccc([C](c2ccccc2)(c2ccccc2)[Sn]([c]2ccccc2)([c]2ccccc2)[c]2ccccc2)cc1
inactive: dose: 25.6 mg/kg/injection, schedule: Q04DX002 (ip), vehicle: saline with Tween-80 121 % of control | dose: 64.0 mg/kg/injection, schedule: Q04DX002 (ip), vehicle: saline with Tween-80 86 % of control | dose: 160.0 mg/kg/injection, schedule: Q04DX002 (ip), vehicle: saline with Tween-80 86 % of control | dose: 400.0 mg/kg/injection, schedule: Q04DX002 (ip), vehicle: saline with Tween-80 86 % of control

NC(=S)N/N=C\c1csc2ccccc12
inactive: [18] 92 % of control | [21] 96 % of control | [19] 92 % of control | [22] 107 % of control | [20] 95 % of control | [23] 94 % of control

O=C1CCCN1C1CC2c3ccccc3C1c1cccc[n+]12 (stereo unspecified)
inactive: dose: 5.0 mg/kg/injection, schedule: Q01DX009 (ip), vehicle: saline sonified 94 % of control | dose: 10.0 mg/kg/injection, schedule: Q01DX009 (ip), vehicle: saline sonified 98 % of control | dose: 20.0 mg/kg/injection, schedule: Q01DX009 (ip), vehicle: saline sonified 97 % of control

CC(COc1cc(Cl)c(Cl)cc1Cl)OC(=O)COc1ccc(Cl)cc1Cl (stereo unspecified)
inactive: [21] 88 % of control | [22] 95 % of control | [23] 95 % of control

CCCCCCCCCCC(OO)C(=O)OC(C)(C)C (stereo unspecified)
inactive: [2] 95 % of control | [4] 91 % of control | [6] 91 % of control

c1cc[n+]2c(c1)-c1cccc[n+]1CC2
inactive: dose: 6.25 mg/kg/injection, schedule: Q01DX009 (ip), vehicle: saline 108 % of control | [15] 104 % of control | [16] 104 % of control | dose: 15.0 mg/kg/injection, schedule: Q01DX001 (ip), vehicle: saline 95 % of control | [17] 104 % of control | dose: 30.0 mg/kg/injection, schedule: Q01DX001 (ip), vehicle: saline 102 % of control | [9] 101 % of control | dose: 60.0 mg/kg/injection, schedule: Q01DX001 (ip), vehicle: saline 102 % of control | dose: 75.0 mg/kg/injection, schedule: Q01DX001 (ip), vehicle: saline 95 % of control

O=C(O)/C=C/C(=O)NCCc1ccccc1
inactive: [1] 91 % of control | [3] 102 % of control | [5] 96 % of control

CC1=CCCC(C)(C)C1/C=C/C(=O)O (stereo unspecified)
inactive: [1] 105 % of control | [3] 97 % of control | [5] 101 % of control

O=c1cc(CCl)occ1O
inactive: dose: 50.0 mg/kg/injection, schedule: Q04DX003 (ip), vehicle: Klucel (hydroxypropylcellulose) (HPC) 95 % of control | [12] 98 % of control | [13] 97 % of control
